The text below walks through data of patent US7135462B2, “Hepatitis C virus inhibitors” (priority 2003, dated 2006).

In assay [1] the target is T1, HCV NS3/4A protease complex (BMS strain) (UniProt P27958, C1454S/C1711G, species not given).
T1 construct: for H77 and J4L6S; fused on or other part: Three-lysine solubilising tail at the C-terminus of NS4A
The assay can be described thus: Recombinant HCV NS3/4A protease complex FRET peptide assay. In kind it is biochemical, Hepatitis C virus (HCV), genotype 1a. Particulars: NS3/4A BMS strain; activity range class; read-out: IC50. The text has this:
Recombinant HCV NS3/4A Protease Complex FRET Peptide Assay
Serum from an HCV-infected patient was obtained from Dr. T. Wright, San Francisco Hospital. An engineered full-length cDNA (compliment deoxyribonucleic acid) template of the HCV genome (BMS strain) was constructed from DNA fragments obtained by reverse transcription-PCR (RT-PCR) of serum RNA (ribonucleic acid) and using primers selected on the basis of homology between other genotype 1a strains.
The H77 and J4L6S strains were used for production of recombinant NS3/4A protease complexes. […] Briefly, a three-lysine solubilizing tail was added at the 3′-end of the NS4A coding region. […] Briefly, the NS3/4A protease complex expression was induced with 0.5 millimolar (mM) Isopropyl β-D-1-thiogalactopyranoside (IPTG) for 22 hours (h) at 20° C. […] The cells were resuspended in lysis buffer (10 mL/g) consisting of 25 mM N-(2-Hydroxyethyl)piperazine-N′-(2-Ethane Sulfonic acid) (HEPES), pH 7.5, 20% glycerol, 500 mM Sodium Chloride (NaCl), 0.5% Triton X-100, 1 microgram/milliliter (“μg/mL”) lysozyme, 5 mM Magnesium Chloride (MgCl2), 1 μg/ml DnaseI, 5 mM β-Mercaptoethanol (βME), Protease inhibitor—Ethylenediamine Tetraacetic acid (EDTA) free (Roche), homogenized and incubated for 20 minutes (min) at 4° C. The homogenate was sonicated and clarified by ultra-centrifugation at 235000 g for 1 h at 4° C. Imidazole was added to the supernatant to a final concentration of 15 mM and the pH adjusted to 8.0. The crude protein extract was loaded on a Nickel—Nitrilotriacetic acid (Ni-NTA) column pre-equilibrated with buffer B (25 mM HEPES, pH 8.0, 20% glycerol, 500 mM NaCl, 0.5% Triton X-100, 15 mM imidazole, 5 mM βME). The sample was loaded at a flow rate of 1 mL/min. The column was washed with 15 column volumes of buffer C (same as buffer B except with 0.2% Triton X-100). The protein was eluted with 5 column volumes of buffer D (same as buffer C except with 200 mM Imidazole).
NS3/4A protease complex-containing fractions were pooled and loaded on a desalting column Superdex-S200 pre-equilibrated with buffer D (25 mM HEPES, pH 7.5, 20% glycerol, 300 mM NaCl, 0.2% Triton X-100, 10 mM βME). Sample was loaded at a flow rate of 1 mL/min. NS3/4A protease complex-containing fractions were pooled and concentrated to approximately 0.5 mg/ml.
The enzyme was stored at −80° C., thawed on ice and diluted prior to use in assay buffer. […] The sequence of this peptide is loosely based on the NS4A/NS4B natural cleavage site for the HCV NS3 protease except there is an ester linkage rather than an amide bond at the cleavage site. The peptide substrate was incubated with one of the three recombinant NS3/4A protease complexes, in the absence or presence of a compound of the present invention, and the formation of fluorescent reaction product was followed in real time using a Cytofluor Series 4000.
The reagents were as follow: HEPES and Glycerol (Ultrapure) were obtained from GIBCO-BRL. Dimethyl Sulfoxide (DMSO) was obtained from Sigma. β-Mercaptoethanol was obtained from Bio Rad.
Assay buffer: 50 mM HEPES, pH 7.5; 0.15 M NaCl; 0.1% Triton; 15% Glycerol; 10 mM βME. Substrate: 2 μM final concentration (from a 2 mM stock solution in DMSO stored at −20° C.). HCV NS3/4A protease type 1a (1b), 2–3 nM final concentration (from a 5 μM stock solution in 25 mM HEPES, pH 7.5, 20% glycerol, 300 mM NaCl, 0.2% Triton-X100, 10 mM βME).
The assay was performed in a 96-well polystyrene black plate from Falcon.

Assay [2] concerns HCV replicon in Huh7 cells. The assay can be described thus: microbe, parasite or virus in culture. Format: cell-based, strain 1b. The following applies: Hepatitis C virus, Huh-7, 96 h; Huh7 cells expressing HCV replicon, 4 days; activity range class. The text has this: Generation of HCV Replicon
This system enabled us to evaluate the effects of our HCV Protease compounds on HCV RNA replication. Briefly, using the HCV strain 1b sequence described in the Lohmann paper (Assession number: AJ238799), an HCV cDNA was generated encoding the 5′ internal ribosome entry site (IRES), the neomycin resistance gene, the EMCV (encephalomyocarditis viurs)-IRES and the HCV nonstructural proteins, NS3-NS5B, and 3′ non-translated region (NTR). In vitro transcripts of the cDNA were transfected into the human hepatoma cell line, Huh7. […] Resulting cell lines were characterized for positive and negative strand RNA production and protein production over time.
Huh7 cells, constitutively expressing the HCV replicon, were grown in Dulbecco's Modified Eagle Media (DMEM) containing 10% Fetal calf serum (FCS) and 1 mg/ml G418 (Gibco-BRL). Cells were seeded the night before (1.5×10^4 cells/well) in 96-well tissue-culture sterile plates. Compound and no compound controls were prepared in DMEM containing 4% FCS, 1:100 Penicillin/Streptomysin, 1:100 L-glutamine and 5% DMSO in the dilution plate (0.5% DMSO final concentration in the assay). Compound/DMSO mixes were added to the cells and incubated for 4 days at 37° C. After 4 days, plates were rinsed thoroughly with Phosphate-Buffered Saline (PBS) (3 times 150 μl). The cells were lysed with 25 μl of a lysis assay reagent containing the FRET peptide (RET S1, as described for the in vitro enzyme assay). The lysis assay reagent was made from 5× cell Luciferase cell culture lysis reagent (Promega #E153A) diluted to 1× with distilled water, NaCl added to 150 mM final, the FRET peptide diluted to 10 μM final from a 2 mM stock in 100% DMSO. The plate was then placed into the Cytofluor 4000 instrument which had been set to 340 nm excitation/490 nm emission, automatic mode for 21 cycles and the plate read in a kinetic mode. EC50 determinations were carried out as described for the IC50 determinations. […]
The percentage inhibition was calculated using the formula below: […]
The values were graphed and analyzed using XLFit to obtain the EC50 value.
On the technique in general: Replicon systems follow genome replication, usually without infectious particles.

The term IC50 denotes the concentration that gives 50% inhibition. What is called EC50 is the concentration at which the effect is half-maximal. Low values mean an effect from little substance, high ones a need for much substance.

`C=C[C@@H]1C[C@]1(NC(=O)[C@@H]1C[C@@H](Oc2nc(-c3ccccc3)nc3ccccc23)CN1C(=O)[C@@H](NC(=O)OC(C)(C)C)C(C)(C)C)C(=O)NS(=O)(=O)C1(Cc2ccccc2)CC1` [Cmpd 601]: the IC50 in assay [1] was below 100 nM. Besides, the EC50 in assay [2] lay within 100 to 1000 nM.

For the compound `C=C[C@@H]1C[C@]1(NC(=O)[C@@H]1C[C@@H](Oc2nccc3c(Cl)c(OC)ccc23)CN1C(=O)[C@@H](NC(=O)OC(C)(C)C)C(C)(C)C)C(=O)NS(=O)(=O)C1(CC)CC1` [Cpd 105], the IC50 in assay [1] is below 100 nM. Also, the EC50 in assay [2] is below 100 nM.

For `C=C[C@@H]1C[C@]1(NC(=O)[C@@H]1C[C@@H](Oc2ncc(Cl)c3ccccc23)CN1C(=O)[C@@H](NC(=O)OC(C)C)C(C)(C)C)C(=O)NS(=O)(=O)C1(CC)CC1` [Cpd 112], the half-maximal inhibitory concentration (IC50) in assay [1] was below 100 nM. Further, the EC50 in assay [2] lay in the range of 100 to 1000 nM.

Consider `C=C[C@@H]1C[C@]1(NC(=O)[C@@H]1C[C@@H](Oc2nccc3c4c(ccc23)OCCO4)CN1C(=O)[C@@H](NC(=O)OC(C)(C)C)C(C)(C)C)C(=O)NS(=O)(=O)C1(CC)CC1` [Cpd 108], for which the IC50 in assay [1] is below 100 nM. This compound also returned an EC50 in assay [2] below 100 nM.

In the case of `C=C[C@@H]1C[C@]1(NC(=O)[C@@H]1C[C@@H](Oc2nccc3ccccc23)CN1C(=O)[C@@H](NC(=O)OCCOC)C(C)(C)C)C(=O)NS(=O)(=O)C1(Cc2ccccc2)CC1` [Cmpd 204], the IC50 in assay [1] was in the range of 1000 to 10000 nM.

Take `C=C[C@@H]1C[C@]1(NC(=O)[C@@H]1C[C@@H](Oc2nccc3cc(OC)ccc23)CN1C(=O)[C@@H](NC(=O)OC(C)(C)C)C(C)(C)C)C(=O)NS(=O)(=O)C1(CC)CC1` [Cmpd 300, {1-[2-[1-(1-Ethyl-cyclopropanesulfonylaminocarbonyl)-2-vinyl-cyclopropylcarbamoyl]-4-(6-methoxy-isoquinolin-1-yloxy)-pyrrolidine-1-carbonyl]-2,2-dimethyl-propyl}-carbamic acid tert-butyl ester]: the IC50 in assay [1] was below 100 nM. In addition, the EC50 in assay [2] is below 100 nM.

As to `C=C[C@@H]1C[C@]1(NC(=O)[C@@H]1C[C@@H](Oc2nccc3c(OC(F)(F)F)cccc23)CN1C(=O)[C@@H](NC(=O)OC(C)(C)C)C(C)(C)C)C(=O)NS(=O)(=O)C1(CC)CC1` [Cpd 103], the IC50 in assay [1] is below 100 nM. Also, the EC50 in assay [2] was 100 to 1000 nM.

With `C=C[C@@H]1C[C@]1(NC(=O)[C@@H]1C[C@@H](Oc2cc(-c3ccccc3)nc3c(C)noc23)CN1C(=O)[C@@H](NC(=O)OC(C)(C)C)C(C)(C)C)C(=O)NS(=O)(=O)C1(Cc2ccccc2)CC1` [Cmpd 500], the 50% inhibitory concentration (IC50) in assay [1] was below 100 nM. The compound further showed an EC50 in assay [2] of 100 to 1000 nM.

Regarding `C=C[C@@H]1C[C@]1(NC(=O)[C@@H]1C[C@@H](Oc2nccc3c(C(F)(F)F)cccc23)CN1C(=O)[C@@H](NC(=O)OC(C)(C)C)C(C)(C)C)C(=O)NS(=O)(=O)C1(CC)CC1` [Cpd 104], the concentration for half-maximal inhibition (IC50) in assay [1] is below 100 nM. Moreover, the EC50 in assay [2] lay within 100 to 1000 nM.

On to `C=C[C@@H]1C[C@]1(NC(=O)[C@@H]1C[C@@H](Oc2nccc3ccccc23)CN1C(=O)[C@@H](NC(=O)COC)C(C)(C)C)C(=O)NS(=O)(=O)C1(Cc2ccccc2)CC1` [Cmpd 211], for which the IC50 in assay [1] was in the range of 1000 to 10000 nM.

In the case of `C=C[C@@H]1C[C@]1(NC(=O)[C@@H]1C[C@@H](Oc2nccc3ccccc23)CN1C(=O)[C@@H](NC(=O)Oc1ccccc1OC)C(C)(C)C)C(=O)NS(=O)(=O)C1(Cc2ccccc2)CC1` [Cmpd 207], the IC50 in assay [1] fell in the range of 1000 to 10000 nM.

On to `C=C[C@@H]1C[C@]1(NC(=O)[C@@H]1C[C@@H](Oc2nccc3ccccc23)CN1C(=O)[C@@H](NC(=O)CCOC)C(C)(C)C)C(=O)NS(=O)(=O)C1(Cc2ccccc2)CC1` [Cmpd 212], for which, in assay [1], the IC50 was in the range of 1000 to 10000 nM.

For the compound `C=C[C@@H]1C[C@]1(NC(=O)[C@@H]1C[C@@H](Oc2nc(-c3ccccc3)nc3ccccc23)CN1C(=O)[C@@H](N)C(C)(C)C)C(=O)NS(=O)(=O)C1(Cc2ccccc2)CC1` [Cmpd 603], the IC50 in assay [1] fell in the range of 1000 to 10000 nM.

With `C=C[C@@H]1C[C@]1(NC(=O)[C@@H]1C[C@@H](Oc2nccc3ccccc23)CN1C(=O)[C@@H](NC(=O)Oc1ccc(C)cc1)C(C)(C)C)C(=O)NS(=O)(=O)C1(Cc2ccccc2)CC1` [Cmpd 200], the IC50 in assay [1] lay within 1000 to 10000 nM.

In the case of `C=C[C@@H]1C[C@]1(NC(=O)[C@@H]1C[C@@H](Oc2nccc3ccccc23)CN1C(=O)[C@@H](NC(=O)OCCF)C(C)(C)C)C(=O)NS(=O)(=O)C1(Cc2ccccc2)CC1` [Cmpd 206], the IC50 in assay [1] is 100 to 1000 nM.

For `C=C[C@@H]1C[C@]1(NC(=O)[C@@H]1C[C@@H](Oc2nccc3ccccc23)CN1C(=O)[C@@H](NC(=O)Oc1ccc(F)cc1)C(C)(C)C)C(=O)NS(=O)(=O)C1(Cc2ccccc2)CC1` [Cmpd 202], the IC50 in assay [1] lay in the range of 1000 to 10000 nM.

For the compound `C=C[C@@H]1C[C@]1(NC(=O)[C@@H]1C[C@@H](Oc2nccc3ccccc23)CN1C(=O)[C@@H](NC(=O)Oc1ccc(OC)cc1)C(C)(C)C)C(=O)NS(=O)(=O)C1(Cc2ccccc2)CC1` [Cmpd 203], in assay [1], the half-inhibitory concentration (IC50) lay in the range of 1000 to 10000 nM.

Consider `C=C[C@@H]1C[C@]1(NC(=O)[C@@H]1C[C@@H](Oc2nccc3ccccc23)CN1C(=O)[C@@H](NC(=O)Oc1cccc(C(F)(F)F)c1)C(C)(C)C)C(=O)NS(=O)(=O)C1(Cc2ccccc2)CC1` [Cmpd 208], for which the IC50 in assay [1] is 1000 to 10000 nM.

Take `C=C[C@@H]1C[C@]1(NC(=O)[C@@H]1C[C@@H](Oc2nccc3ccccc23)CN1C(=O)[C@@H](NC(=O)[C@@H]1COc2ccccc2O1)C(C)(C)C)C(=O)NS(=O)(=O)C1(Cc2ccccc2)CC1` [Cmpd 213]: the IC50 in assay [1] was in the range of 10000 to 100000 nM.

For `C=C[C@@H]1C[C@]1(NC(=O)[C@@H]1C[C@@H](Oc2nccc3ccccc23)CN1C(=O)[C@@H](NC(=O)Oc1ccccc1)C(C)(C)C)C(=O)NS(=O)(=O)C1(Cc2ccccc2)CC1` [Cmpd 201], the IC50 in assay [1] was 1000 to 10000 nM.

Regarding `C=C[C@@H]1C[C@]1(NC(=O)[C@@H]1C[C@@H](Oc2nccc3ccccc23)CN1C(=O)[C@@H](NC(=O)CC(C)(C)C)C(C)(C)C)C(=O)NS(=O)(=O)C1(Cc2ccccc2)CC1` [Cmpd 210], the IC50 in assay [1] lay within 1000 to 10000 nM.
